“And” between values parts separate entries of the source, which are not always exact repeats. Identical values can stand only once. One block for each compound: values may come before it.
Experiments:
[1] = Plasma pharmacokinetics of 1,25; format: in vivo, nu/nu mice
CYP24 [2] = conditions: cited from earlier work
[3] = Compartmental analysis of plasma and tumor 1,25
Tumor = format: in vivo, nu/nu mice
[4] = ref personal communication, M. Petkovich; cited from earlier work
CYP24 [5] = conditions: in vitro; 50 nM CTA091; ref Zhang et al., manuscript under review; cited from earlier work
CYP27B1 mRNA = CYP27B1 mRNA expression in H292 cells in vitro; format: cell-based, human; conditions: data not shown
CYP24 mRNA [6] = assay: CYP24 mRNA expression in H292 cells in vitro
CYP24 mRNA [7] = assay: CYP24 mRNA expression in H292 xenografts in vivo
[8] = 0.5 µg/kg once weekly; oncology setting; cited from earlier work
[9] = 250 µg/kg CTA091 i.p. with 20 µg/kg 1,25(OH)2D3 versus 1,25(OH)2D3 alone
[10] = rats, a similar dose (to 250 µg/kg)
[11] = compartmental model, 250 µg/kg CTA091
[12] = female, nu/nu, mouse, plasma, ip, 20 ug/kg
[13] = compartmental model, tumor volume fixed at 1 L/kg
[14] = female, nu/nu, mouse, tumor (H292 xenograft), ip, 20 ug/kg

- +/− CTA091 Ratio, plasma AUC0-inf of 1,25(OH)2D3 [1, 9]: 1.5
- +/− CTA091 Ratio, plasma AUC0–8h of 1,25(OH)2D3 [1, 9]: 1.4
- +/− CTA091 Ratio, plasma Cl/F of 1,25(OH)2D3 [1, 9]: 0.68
- +/− CTA091 Ratio, plasma Cmax of 1,25(OH)2D3 [1, 9]: 1.6
- +/− CTA091 Ratio, plasma Kel of 1,25(OH)2D3 [1, 9]: 0.86
- +/− CTA091 Ratio, plasma Tmax of 1,25(OH)2D3 [1, 9]: 2
- +/− CTA091 Ratio, plasma Vd/F of 1,25(OH)2D3 [1, 9]: 0.79
- +/− CTA091 Ratio, plasma t1/2 of 1,25(OH)2D3 [1, 9]: 1.2
- Increase in 1,25(OH)2D3 plasma levels (Cmax) by co-administered CTA091 ([1]; 250 µg/kg CTA091 with 20 µg/kg 1,25(OH)2D3 i.p.): 1.6 fold
- Increase in 1,25(OH)2D3 plasma terminal half-life by CTA091 ([1]; 250 µg/kg CTA091 with 20 µg/kg 1,25(OH)2D3 i.p., non-compartmental): approximately 1.2 fold
- Decrease in plasma clearance of 1,25(OH)2D3 by CTA091 [3, 11]: 20%
- Decrease in tumor clearance of 1,25(OH)2D3 by CTA091 [3, 11]: 46%
- ktc/(ktc+ ktumor elim) ([3]; compartmental model, tumor clearance with versus without CTA091): 0.54
- +/− CTA091 Ratio, tumor/plasma AUC0–h of 1,25(OH)2D3 (Tumor; [9]): 1.8
- +/− CTA091 Ratio, tumor/plasma Cmax of 1,25(OH)2D3 (Tumor; [9]): 1.7
- Increase in 1,25(OH)2D3 tumor levels by co-administered CTA091 (Tumor; 250 µg/kg CTA091 with 20 µg/kg 1,25(OH)2D3 i.p., H292 tumor): 2.6 fold
SMILES: C=C1/C(=C\C=C2/CCC[C@]3(C)[C@@H]([C@H](C)CCS(=N)(=O)c4ccccc4)CC[C@@H]23)C[C@@H](O)C[C@@H]1O (stereo partly drawn) [CTA091]
- Increase in rat serum 1,25(OH)2D3 Cmax (CYP24 [2]; rat, 500 µg/kg CTA091): 1.5 fold
- Increase in rat serum 1,25(OH)2D3 exposure (CYP24 [2]; rat, 500 µg/kg CTA091): 1.4 fold
- Effect on endogenous 1,25(OH)2D3 levels (CYP24 [2]; [10]): increased endogenous 1,25(OH)2D3 levels
- Effect on serum PTH levels (CYP24 [2]; [10]): decreased serum PTH levels
- Plasma clearance of CTA091 relative to 1,25(OH)2D3 [4]: cleared from plasma more rapidly than 1,25(OH)2D3
- Effect on 1,25(OH)2D3-mediated transcription (CYP24 [5]): significantly increases 1,25(OH)2D3-mediated transcription
- Inhibition of 1,25(OH)2D3 catabolism (CYP24 [5]): consistently and maximally inhibits 1,25(OH)2D3 catabolism
- Effect on CYP27B1 mRNA expression (CYP27B1 mRNA): no effect
- Increase of the transcriptional induction of CYP24 by 1,25(OH)2D3 (CYP24 mRNA [6]; H292 cells, CTA091 with 1,25(OH)2D3, data not shown): approximately 4 fold
- Effect of CTA091 alone on CYP24 gene expression (CYP24 mRNA [6]; H292 cells, data not shown): no effect

SMILES: C=C1/C(=C\C=C2/CCC[C@]3(C)[C@@H]([C@H](C)CCCC(C)(C)O)CC[C@@H]23)C[C@@H](O)C[C@@H]1O [1,25(OH)2D3, 1,25-dihydroxyvitamin D3]
- AUC(0-inf) [1, 12]: 69.1 ng·h/mL
- AUC(0-t) [1, 12]: 67.4 ng·h/mL
- CL/F [1, 12]: 4.82 mL/min/kg
- Cmax [1, 12]: 21.6 ng/mL
- Tmax [1, 12]: 0.25 h
- Vd/F [1, 12]: 0.592 L/kg
- half-life [1, 12]: 1.42 h
- k el [1, 12]: 0.000136 s⁻¹
- Tmax ([1]; female, nu/nu, mouse, plasma, ip, 20 µg/kg): 0.25 to 0.5 h
- Increase in tumor CYP24 mRNA levels (CYP24 mRNA [7]; single dose of 1,25(OH)2D3, 4 h post-treatment): approximately 4 fold
- Increase in tumor CYP24 mRNA levels (CYP24 mRNA [7]; single dose of 1,25(OH)2D3, after 8 h): ~15 fold
- kct, transfer rate constant from the central to the tumor compartment, Estimate (%SE) [3, 13]: 0.454 (18) h^−1
- ktc, transfer rate constant from the tumor to the central compartment, Estimate (%SE) [3, 13]: 1.24 (22) h^−1
- CL/F [3, 12]: 4.85 mL/min/kg
- Vd/F [3, 12]: 0.653 L/kg
- half-life [3, 12]: 1.56 h
- k el [3, 12]: 0.000124 s⁻¹
- k el ([3]; female, nu/nu, mouse, tumor (H292 xenograft), intraperitoneal, 20 µg/kg): 0.000292 s⁻¹
- half-life [3, 14]: 0.661 h
- k el [3, 14]: 0.000289 s⁻¹
- Maximum tumor concentration of 1,25(OH)2D3 (Tumor; H292 tumor, 20 µg/kg 1,25(OH)2D3 i.p.): 1.70 ng/mL
- Tumor Cmax of 1,25(OH)2D3 (Tumor; H292 tumor, 20 µg/kg 1,25(OH)2D3 i.p. alone or with 250 µg/kg CTA091): 1.7 ng/g and 1.70 ng/g
- Tmax (Tumor; [14]): 2 h
- half-life (Tumor; [14]): 1.95 h
- k el (Tumor; [14]): 9.86e-05 s⁻¹
- Peak tumor concentration of 1,25(OH)2D3 (molar) (Tumor; given that 1 g of tumor has a volume of 1 mL, without or with CTA091): 3.8 nM
- Induction of CYP24 expression in H292 cells in vitro (CYP24 mRNA [6]; 1 nM 1,25(OH)2D3 (Fig. 1A)): induced to express CYP24
- Safety of high-dose 1,25(OH)2D3 [8]: safely delivered

— paper PMC3303948 (Steroids, 2012)
